# Data published in patent US9422226B2 (Biogen MA Inc., priority 2011, dated 2016).
# Counter-ions that a name gives are not always drawn. Like-named read-outs stand apart in the source and are kept apart here.
# Experiments:
# [1] = Hydrolysis of dimethyl sulfate, water spiking, 1H NMR kinetics; assay type: physicochemical; settings: 65° C., water 10.5, 14.0, 17.7 mole % in DMS-methanol
# Method: The hydrolysis rate of dimethyl sulfate was determined by spiking known amounts of water into a mixture of DMS and methanol. Water was spiked into DMS-methanol solutions at three different levels—10.5, 14.0, and 17.7 mole % equivalents. The reactions were monitored for 60 minutes at 65° C. and the DMS peak integrals obtained.
# The rate constant for the hydrolysis of DMS (k−2) was derived by fitting all the data to a DynoChem model that used the time-dependant peak integral data.
# [2] = Methanolysis of dimethyl sulfate, 1H NMR kinetics; assay type: physicochemical; settings: 65° C., 1.5 mole % DMS in dry methanol
# Method: Solutions of 1.5 mole % DMS and methanol were heated in a sealed tube to 35° C. and the time-dependent NMR spectra were collected for these mixtures. […] Use of NMR data helped confirm the reaction mechanism proposed in Scheme 2.
# The reaction proceeded more slowly at 35° C. but clearly confirms the formation of dimethyl ether (DME). The gradual downfield shift of the exchangeable OH resonance (4.8 ppm) supports the generation of a strong acid i.e., MMS (Scheme 5). Another set of duplicate experiments were performed under the reaction conditions at 65° C. (again spiking 1.5 mole % DMS into dry methanol with <0.01% water and no sulfuric acid) and monitoring the reaction for 60 minutes. This reaction was considered to be essentially irreversible under nominal plant process conditions since the reaction vessels are not pressurized and the resultant dimethyl ether would bubble out of solution.
# [3] = Formation of monomethyl sulfate from sulfuric acid and methanol, 1H NMR kinetics; assay type: physicochemical; settings: 65° C., dry methanol and concentrated sulfuric acid; ±7% RSD
# Method: All ^1H NMR spectra were obtained in and referenced against DMSO-d6 at 2.5 ppm using a Varian 500 MHz NMR. Concentrated sulfuric acid, fumaric acid, and dimethyl fumarate were obtained from the Sigma-Aldrich Chemical Company. Authentic standards of MMS (Na salt) and DMS were also obtained from Sigma-Aldrich. For spiking identification purposes, an authentic sample of MMS was prepared by passing a methanolic solution of the commercially available sodium salt through Amberlite FPA 22 resin (H form, 10 molar equivalents), and concentrating to an oil on a flash evaporator.
# All small scale reactions performed in the study were magnetically stirred and carried out using an insulated oil bath maintained at 65 deg±1° C. […]
# Sampling of reactions involved removal of a minimum of 150-400 μL of reaction solution, addition to DMSO-d6 (lock solvent) as required to make up a 650 μL solution in each NMR tube. Samples were chilled in an ice/water bath, and analyzed within 5-10 minutes of their preparation. […]
# Dry methanol (<0.01% water) was mixed with concentrated dry sulfuric acid and heated to 65° C. […] Equilibrium was reached within 1 hour, resulting in an essentially quantitative conversion of sulfuric acid to monomethyl sulfate. […] The second-order forward rate constant (k1) for the formation of MMS at 65° C. was determined to be 6.4×10^−5 L/mol-sec with a confidence interval of ±7% RSD.
# [4] = cited from earlier work; for rate constant for the hydrolysis of MMS, extrapolated: at 25° C.
# [5] = Hydrolysis of monomethyl sulfate, water spiking, 1H NMR; assay type: physicochemical
# Method: The rate constant of this reaction was measured by spiking water into solutions containing MMS (1.5 mole %) and monitoring the heated, sealed, vessel by ^1H NMR for 45 hours. Water was spiked into the matrix at two different levels—6 mole % and 12 mole %. […] In order to develop the larger model, the MMS equilibrium constant K (k1/k−1) was assigned a value of 999:1 in favor of the forward reaction, thus conservatively defining k−1 as 6.4×10^−8 L/mol-sec.
# [6] = high doses; cited from earlier work
# [7] = Mean particle size before and after jet milling; assay type: physicochemical
# Description: These particles were milled to produce particles of a suitable size for consistent handling and uniformity for drug product processing. The target specification for particle size is ≧97% of the particles <250 μm. The dimethyl fumarate drug substance was milled consistently to meet this specification using a jet mill. […] It is evident that the milling operation is capable of producing a drug substance of suitable quality.
# [8] = Lab crystallization experiments with different cooling rates, mean particle size; assay type: physicochemical; settings: isolated from the reaction mixture prior to milling
# Method: In the current process the mixture was cooled from reaction temperature 65° C. to the end temperature 20-25° C. in about 8 hours, stirred for 1-2 hours, and filtered to isolate the product.
# Table 2 highlights results from laboratory crystallization experiments with cooling rates chosen within manufacturing equipment capabilities.
# [9] = Particle size of dimethyl fumarate by laser diffraction during and after drying; assay type: physicochemical
# Method: The particle sizes reported here are based on a measured distribution. In one embodiment, the particle sizes are measured using a Laser Diffraction technique that correlates light scattering to particle volume on which “effective length or effective diameter” is calculated. The distribution is based on a measurement of thousands of particles. Particles samples can be in dry form or in slurry. In one embodiment, the instrument used to determine particle size/distribution is a Beckman Coulter LS230 or a Malvern Mastersizer.
# The effect of temperature, pressure, and drying time on particle size was also investigated. […] Development studies examined the extent of sublimation under the drying conditions employed in the manufacturing plant. The first 3 entries in Table 5 are lab samples collected after 7, 24, and 48 hours drying time. The result from the three lab samples confirms that drying has no effects on the particle size. The particle size of lab samples were also compared to two representative plant samples which were dried for 48 hours and 72 hours. There is no change in particle size during drying.
# [10] = tested on: Ehrlich solid tumor cells; settings: in mice; cited from earlier work
# serum proteins = settings: cited from earlier work
smiles,measurement,setting,value
"COS(=O)(=O)OC [DMS, dimethyl sulfate]",rate constant for the hydrolysis of DMS (k−2),[1],0.00023 L/mol/s
same,rate constant for the methanolysis of DMS (k3),[2],4.1e-05 L/mol/s
"COS(=O)(=O)O [MMS, monomethyl sulfate]",second-order forward rate constant (k1) for the formation of MMS,[3],6.4e-05 L/mol/s
same,equilibrium constant for the hydrolysis of monomethyl sulfate,"[4]; T=100° C. to 150° C., sulfuric acid 1-4 M",0.027 M⁻¹
same,"rate constant for the hydrolysis of MMS, extrapolated","[4]; 1M HCl, T=40° C. to 100° C.",1.7e-08 M⁻¹ s⁻¹
same,"rate constant for the hydrolysis of MMS, extrapolated","[4]; pH=3 to 10, T=100° C. to 190° C.",2.2e-11 M⁻¹ s⁻¹
same,MMS level after water spiking,"[5]; MMS 1.5 mole %, water 6 and 12 mole %, heated sealed vessel, 45 hours",virtually unchanged
same,hydrolysis rate constant k−1,"[5]; from K (k1/k−1) assigned 999:1, conservative",6.4e-08 L/mol/s
O=C(O)/C(O)=C(\O)C(=O)O [dihydroxy fumaric acid],side effects and toxicity,[6],high toxicity
COC(=O)/C=C/C(=O)OC [dimethyl fumarate],Mean Particle Size,[7]; after jet milling,20-40 μm
same,Mean Particle Size,"[7]; isolated from the dryer, before milling",550-650 μm
same,Mean Particle Size,[8]; cooling rate 5° C./h,475 μm
same,Mean Particle Size,[8]; cooling rate 8° C./h,448 μm
same,Mean Particle Size,[8]; cooling rate 15° C./h,475 μm
same,"Particle Size by Laser Diffraction, D10",[9]; drying time 7 h (lab),328 μm
same,"Particle Size by Laser Diffraction, D50",[9]; drying time 7 h (lab),566 μm
same,"Particle Size by Laser Diffraction, D90",[9]; drying time 7 h (lab),850 μm
same,"Particle Size by Laser Diffraction, D97",[9]; drying time 7 h (lab),987 μm
same,"Particle Size by Laser Diffraction, Mean",[9]; drying time 7 h (lab),524 μm
same,"Particle Size by Laser Diffraction, D10",[9]; drying time 24 h (lab),323 μm
same,"Particle Size by Laser Diffraction, D50",[9]; drying time 24 h (lab),562 μm
same,"Particle Size by Laser Diffraction, D90",[9]; drying time 24 h (lab),843 μm
same,"Particle Size by Laser Diffraction, D97",[9]; drying time 24 h (lab),979 μm
same,"Particle Size by Laser Diffraction, Mean",[9]; drying time 24 h (lab),521 μm
same,"Particle Size by Laser Diffraction, D10",[9]; drying time 48 h (lab),340 μm
same,"Particle Size by Laser Diffraction, D50",[9]; drying time 48 h (lab),567 μm
same,"Particle Size by Laser Diffraction, D90",[9]; drying time 48 h (lab),845 μm
same,"Particle Size by Laser Diffraction, D97",[9]; drying time 48 h (lab),980 μm
same,"Particle Size by Laser Diffraction, Mean",[9]; drying time 48 h (lab),535 μm
same,"Particle Size by Laser Diffraction, D10",[9]; drying time 48 h (plant),332 μm
same,"Particle Size by Laser Diffraction, D50",[9]; drying time 48 h (plant),561 μm
same,"Particle Size by Laser Diffraction, D90",[9]; drying time 48 h (plant),828 μm
same,"Particle Size by Laser Diffraction, D97",[9]; drying time 48 h (plant),956 μm
same,"Particle Size by Laser Diffraction, Mean",[9]; drying time 48 h (plant),536 μm
same,"Particle Size by Laser Diffraction, D10",[9]; drying time 72 h (plant),327 μm
same,"Particle Size by Laser Diffraction, D50",[9]; drying time 72 h (plant),562 μm
same,"Particle Size by Laser Diffraction, D90",[9]; drying time 72 h (plant),834 μm
same,"Particle Size by Laser Diffraction, D97",[9]; drying time 72 h (plant),963 μm
same,"Particle Size by Laser Diffraction, Mean",[9]; drying time 72 h (plant),524 μm
NC(=O)/C=C/C(N)=O [fumaramide],side effects and toxicity,[6],high toxicity
O=C(O)/C=C/C(=O)O [fumaric acid],growth of Ehrlich solid tumor cells,[10],impede the growth
N#C/C=C/C#N [fumaronitrile],side effects and toxicity,[6],high toxicity
COC(=O)/C=C/C(=O)O [methyl hydrogen fumarate],bound by serum proteins,serum proteins,30%
